A word on the IC50: it is the concentration needed to halve the response being measured.

Chain of Hypoxia-inducible factor 1-alpha (Q16665 whole entry): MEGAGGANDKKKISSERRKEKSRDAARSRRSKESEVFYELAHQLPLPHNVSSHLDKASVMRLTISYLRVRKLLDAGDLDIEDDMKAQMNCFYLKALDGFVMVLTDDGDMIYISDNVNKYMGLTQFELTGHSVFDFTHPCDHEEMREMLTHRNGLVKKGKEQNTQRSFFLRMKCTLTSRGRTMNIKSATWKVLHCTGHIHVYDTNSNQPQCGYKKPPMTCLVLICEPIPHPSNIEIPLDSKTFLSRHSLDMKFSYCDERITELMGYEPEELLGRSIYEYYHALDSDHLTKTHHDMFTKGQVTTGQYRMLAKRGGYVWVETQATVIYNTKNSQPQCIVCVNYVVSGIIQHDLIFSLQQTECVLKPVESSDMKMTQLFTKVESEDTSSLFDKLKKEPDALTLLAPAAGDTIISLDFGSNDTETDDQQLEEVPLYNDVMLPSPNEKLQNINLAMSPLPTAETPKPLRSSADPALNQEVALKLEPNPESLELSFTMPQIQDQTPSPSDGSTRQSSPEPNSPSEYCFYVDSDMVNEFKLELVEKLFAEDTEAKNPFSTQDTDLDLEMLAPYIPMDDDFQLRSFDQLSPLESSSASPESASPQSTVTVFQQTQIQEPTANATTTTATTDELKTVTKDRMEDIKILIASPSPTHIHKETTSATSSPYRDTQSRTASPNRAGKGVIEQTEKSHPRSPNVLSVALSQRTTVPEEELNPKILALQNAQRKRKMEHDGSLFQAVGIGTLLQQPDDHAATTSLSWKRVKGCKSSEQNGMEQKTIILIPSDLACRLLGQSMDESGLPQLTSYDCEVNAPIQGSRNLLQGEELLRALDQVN

This assay has as its target Hypoxia-inducible factor 1-alpha (Homo sapiens, UniProt Q16665). The assay can be described thus: Inhibition of HIF1alpha transcriptional activity in human HeLa cells transfected with HRE-firefly luciferase and cytomegalovirus-promoter expressing Renilla luciferase incubated for 12 hrs under 1% O2 condition by dual luciferase reporter gene assay. Background: In a reporter assay the amount or activity of a reporter protein is the signal.
Regarding `O=C1c2ccccc2-c2cnn(-c3ccc(C(F)(F)F)cc3)c21`, inhibition was half-maximal at 23 µM (IC50).
In the case of `O=C1c2ccccc2-c2cn[nH]c21`, the IC50 was greater than 30 µM.
With `COc1ccc(-n2ncc3c2C(=O)c2ccccc2-3)cc1` the figure was 0.61 µM; with `Cc1ccc(-n2ncc3c2C(=O)c2ccccc2-3)cc1`, 0.79 µM.
In turn, `Cc1nn(-c2ccccc2)c2c1-c1ccccc1C2=O` gave an IC50 of 4.8 µM.
With `O=C1c2ccccc2-c2cnn(-c3ccc(O)cc3)c21` the figure was 0.39 µM; with `Cn1ncc2c1C(=O)c1ccccc1-2`, 8.8 µM.
With `O=C1c2ccccc2-c2cnn(-c3ccccc3)c21` the figure was 1.4 µM; with `O=C1c2ncccc2-c2cnn(-c3ccccc3)c21`, 10 µM.

The values are drawn from BindingDB's records for doi:10.1016/j.bmc.2019.115207 (Tokyo Institute of Innovative Research, 2020).
